# In US11077100B2, “Tetrahydroquinoline derivatives as P2X7 receptor antagonists” (RaQualia Pharma Inc., priority 2017, dated 2021):
# Biological target: human P2X7 (Homo sapiens (Human), UniProt Q99572)
# Assay: Human P2X7 functional assay (Ca2+ influx, Fluo-4, FDSS)
# Assay type: cell-based
# Settings: antagonistic activity with respect to the human P2X7 receptor; BzATP final concentration 80 microM
# Method: The ability of the 5,6,7,8-tetrahydroquinoline and 6,7-dihydro-5H-cyclopenta[b]pyridine derivatives of the formula (I) to inhibit the P2X7 channel was measured by Ca^2+ influx assay and electrophysiology assay described below.
# Human P2X7 Functional Assay
# The functional activity of compounds was determined by measuring changes in intracellular calcium concentration using a Ca^2+-sensitive fluorescent dye, Fluo-4 (Molecular Probes). The changes in fluorescent signal were monitored by the cell imaging technology by Hamamatsu Photonics's Functional Drug Screening System (FDSS). Increases in intracellular Ca^2+ concentration were readily detected upon activation with BzATP.
# HEK293 cells stably expressing human P2X7 (GenBank accession number BC011913) carrying a C-terminal FLAG tag were grown in T225 flasks, in a 5% CO2 humidified incubator to about 80% confluence. Media composition consisted of Dulbecco's Modified Eagle Medium (high glucose), 10% fetal bovine serum ([…]), 100 units/[…] Penicillin, 100 microg/mL Streptomycin and 250 microg/mL Geneticine.
# 1. Plate-out HEK293-human P2X7 cells (40 microL medium containing 10,000 cells per well) into poly-D-lysine coated 384-well plates (Corning) at 24 h prior to assay.
# 2. Incubate at 37° C. in 5% CO2.
# 3. Incubate the plate at 37° C. in 5% CO2 for 1 h.
# 5. Test compounds were prepared at 100× the test concentration in DMSO by serial dilution with Biomek-FX liquid handling instrument. 33× diluted compound solutions in assay buffer were prepared in intermediate compound plate with Biomek-NX liquid handling instrument. A further 3× dilution occurred in below steps 6 and 7.
# 6. Add 20 microL of 33× diluted compound solutions into each well and leave the plate for 10 min under the dark at room temperature.
# 7. Measure activity by FDSS as follows: • Set the assay plate on the stacker of FDSS. • Start the detection of fluorescence intensity at 540 nm by 480 nm exicitation. • After 30 seconds, add 20 microL of assay buffer containing 240 microM BzATP (final concentration 80 microM).
# IC50 values for compounds of the present invention were determined from 7-point dose-response studies. Curves were generated using the average of duplicate wells for each data point. Finally, the IC50 values are calculated with the best-fit dose curve determined by XLfit (ID Business Solutions Ltd.).
# human P2X7, sequence (Q99572 whole entry): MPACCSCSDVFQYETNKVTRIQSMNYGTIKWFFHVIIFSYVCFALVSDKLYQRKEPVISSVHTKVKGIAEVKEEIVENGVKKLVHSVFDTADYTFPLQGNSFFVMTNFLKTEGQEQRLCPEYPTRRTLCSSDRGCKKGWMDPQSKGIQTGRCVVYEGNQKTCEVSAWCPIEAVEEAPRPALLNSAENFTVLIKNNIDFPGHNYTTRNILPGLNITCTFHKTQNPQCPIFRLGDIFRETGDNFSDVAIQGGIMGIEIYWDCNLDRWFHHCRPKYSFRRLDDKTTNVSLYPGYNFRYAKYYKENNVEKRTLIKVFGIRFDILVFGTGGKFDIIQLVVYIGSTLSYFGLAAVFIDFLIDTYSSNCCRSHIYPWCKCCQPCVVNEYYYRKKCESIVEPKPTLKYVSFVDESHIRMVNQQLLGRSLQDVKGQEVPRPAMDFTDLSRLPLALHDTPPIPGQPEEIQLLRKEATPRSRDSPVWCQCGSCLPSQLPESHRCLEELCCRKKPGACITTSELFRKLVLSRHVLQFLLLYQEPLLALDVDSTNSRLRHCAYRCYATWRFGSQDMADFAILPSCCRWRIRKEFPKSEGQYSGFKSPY
row,Compound,IC50
1,"O=C(NCc1ccc(OC(F)(F)F)cc1F)[C@]1(F)CC[C@H](O)c2ncccc21 [Example 207, (5S,8S)-5-fluoro-N-(2-fluoro-4-(trifluoromethoxy)benzyl)-8-hydroxy-5,6,7,8-tetrahydroquinoline-5-carboxamide]",101 to 300 nM
2,"O=C(NCc1cc(C(F)(F)F)ccc1Cl)[C@]1(F)CC[C@H](O)c2ncccc21 [Example 209, (5S,8S)-N-(2-chloro-5-(trifluoromethyl)benzyl)-5-fluoro-8-hydroxy-5,6,7,8-tetrahydroquinoline 5-carboxamide]",101 to 300 nM
3,"COc1ccc(CNC(=O)[C@]2(F)CC[C@H](O)c3ncccc32)c(C(F)(F)F)c1 [Example 211, (5S,8S)-5-fluoro-8-hydroxy-N-(4-methoxy-2-(trifluoromethyl)benzyl)-5,6,7,8-tetrahydroquinoline-5-carboxamide]",101 to 300 nM
4,"O=C(NCc1ccccc1CN1CCOCC1)[C@]1(F)CC[C@H](O)c2ncccc21 [Example 214, (5S,8S)-5-fluoro-8-hydroxy-N-(2-(morpholinomethyl)benzyl)-5,6,7,8-tetrahydroquinoline-5-carboxamide]",101 to 300 nM
5,"O=C(N[C@H]1C[C@@H]1c1ccccc1)[C@]1(F)CC[C@H](O)c2ncccc21 [Example 215, (5S,8S)-5-fluoro-8-hydroxy-N-((1S,2R)-2-phenylcyclopropyl)-5,6,7,8-tetrahydroquinoline-5-carboxamide]",101 to 300 nM
6,"O=C(N[C@H]1CCCc2ccccc21)[C@]1(F)CC[C@H](O)c2ncccc21 [Example 218, (5S,8S)-5-fluoro-8-hydroxy-N-((S)-1,2,3,4-tetrahydronaphthalen-1-yl)-5,6,7,8-tetrahydroquinoline-5-carboxamide]",301 to 1000 nM
7,O=C(NCCOc1cccc(C(F)(F)F)c1)[C@]1(F)CC[C@H](O)c2ncccc21 [Example 219],301 to 1000 nM
8,"O=C(NCC1(c2ccc(F)cc2)CC1)[C@]1(F)CC[C@H](O)c2ncccc21 [Example 220, (5S,8S)-5-fluoro-N-((1-(4-fluorophenyl)cyclopropyl)methyl)-8-hydroxy-5,6,7,8-tetrahydroquinoline-5-carboxamide]",301 to 1000 nM
9,"O=C(N[C@@H]1C[C@H]1c1ccccc1)[C@]1(F)CC[C@H](O)c2ncccc21 [Example 222, (5S,8S)-5-fluoro-8-hydroxy-N-((1R,2S)-2-phenylcyclopropyl)-5,6,7,8-tetrahydroquinoline-5-carboxamide]",301 to 1000 nM
10,"O=C(N[C@H]1CCC[C@@H]1OCc1ccccc1)[C@]1(F)CC[C@H](O)c2ncccc21 [Example 225, (5S,8S)-N-((1S,2S)-2-(benzyloxy)cyclopentyl)-5-fluoro-8-hydroxy-5,6,7,8-tetrahydroquinoline-5-carboxamide]",301 to 1000 nM
11,"O=C(N[C@H]1CCc2ccccc21)[C@]1(F)CC[C@H](O)c2ncccc21 [Example 226, (5S,8S)-N-((S)-2,3-dihydro-1H-inden-1-yl)-5-fluoro-8-hydroxy-5,6,7,8-tetrahydroquinoline-5-carboxamide]",1000 to 3000 nM
12,"CC(C)(C)CCNC(=O)[C@]1(F)CC[C@H](O)c2ncccc21 [Example 227, (5S,8S)-N-(3,3-dimethylbutyl)-5-fluoro-8-hydroxy-5,6,7,8-tetrahydroquinoline-5-carboxamide]",1000 to 3000 nM
13,"O=C(NCCOc1ccccc1)[C@]1(F)CC[C@H](O)c2ncccc21 [Example 228, (5S,8S)-5-fluoro-8-hydroxy-N-(2-phenoxyethyl)-5,6,7,8-tetrahydroquinoline-5-carboxamide]",1000 to 3000 nM
14,"Cc1ncsc1C(CNC(=O)[C@]1(F)CC[C@H](O)c2ncccc21)N1CCC(F)(F)CC1 (stereo partly drawn) [Example 236, (5S,8S)-N-(2-(4,4-difluoropiperidin-1-yl)-2-(4-methylthiazol-5-yl)ethyl)-5-fluoro-8-hydroxy-5,6,7,8-tetrahydroquinoline-5-carboxamide]",1000 to 3000 nM
15,"Cc1cnc2c(c1)[C@](F)(C(=O)NCc1ccc(Cl)cc1Cl)CC[C@@H]2O [Example 243, (5S,8S)-N-(2,4-dichlorobenzyl)-5-fluoro-8-hydroxy-3-methyl-5,6,7,8-tetrahydroquinoline-5-carboxamide]",301 to 1000 nM
16,"Cc1cnc2c(c1)[C@](F)(C(=O)NCc1ccc(F)cc1Cl)CC[C@@H]2O [Example 244, (5S,8S)-N-(2-chloro-4-fluorobenzyl)-5-fluoro-8-hydroxy-3-methyl-5,6,7,8-tetrahydroquinoline-5-carboxamide]",1000 to 3000 nM
17,"O=C1CC[C@@](F)(C(=O)NCc2ncc(Cl)cc2Cl)c2cccnc21 [Example 255, (S)-N-((3,5-dichloro-pyridin-2-yl)methyl)-5-fluoro-8-oxo-5,6,7,8-tetrahydroquinoline-5-carboxamide]",101 to 300 nM
18,"C[C@H](NC(=O)[C@]1(F)CC[C@](C)(O)c2ncccc21)c1ccc(F)cc1Cl [Example 271, (5S,8S)-N-((S)-1-(2-chloro-4-fluorophenyl)ethyl)-5-fluoro-8-hydroxy-8-methyl-5,6,7,8-tetrahydroquinoline-5-carboxamide]",301 to 1000 nM
19,"C[C@@]1(O)CC[C@@](F)(C(=O)NCC2(N3CCOCC3)CCCCC2)c2cccnc21 [Example 275, (5S,8R)-5-fluoro-8-hydroxy-8-methyl-N-((1-morpholinocyclohexyl)methyl)-5,6,7,8-tetrahydroquinoline-5-carboxamide]",1000 to 3000 nM
20,"Cc1cnc2c(c1)[C@](F)(C(=O)NCc1ccc(F)cc1Cl)CC[C@]2(C)O [Example 276, (5S,8S)-N-(2-chloro-4-fluorobenzyl)-5-fluoro-8-hydroxy-3,8-dimethyl-5,6,7,8-tetrahydroquinoline-5-carboxamide]",301 to 1000 nM

# Second part, the molecule after the results:
row,IC50,Compound
1,< 50 nM,"COc1cccc(Cl)c1CNC(=O)[C@]1(F)CC[C@H](O)c2ncccc21 [Example 198, (5S,8S)-N-(2-chloro-6-methoxybenzyl)-5-fluoro-8-hydroxy-5,6,7,8-tetrahydroquinoline-5-carboxamide]"
2,50 to 100 nM,"O=C(NCc1cc(F)c(F)c(F)c1)[C@]1(F)CC[C@H](O)c2ncccc21 [Example 200, (5S,8S)-5-fluoro-8-hydroxy-N-(3,4,5-trifluorobenzyl)-5,6,7,8-tetrahydroquinoline-5-carboxamide]"
3,50 to 100 nM,"O=C(NCc1ccc(F)c(F)c1)[C@]1(F)CC[C@H](O)c2ncccc21 [Example 202, (5S,8S)-N-(3,4-difluorobenzyl)-5-fluoro-8-hydroxy-5,6,7,8-tetrahydroquinoline-5-carboxamide]"
4,50 to 100 nM,"O=C(NCc1cc(F)ccc1Cl)[C@]1(F)CC[C@H](O)c2ncccc21 [Example 204, (5S,8S)-N-(2-chloro-5-fluorobenzyl)-5-fluoro-8-hydroxy-5,6,7,8-tetrahydroquinoline-5-carboxamide]"
5,101 to 300 nM,"O=C(NCc1ccc(Cl)cc1)[C@]1(F)CC[C@H](O)c2ncccc21 [Example 210, (5S,8S)-N-(4-chlorobenzyl)-5-fluoro-8-hydroxy-5,6,7,8-tetrahydroquinoline-5-carboxamide]"
6,101 to 300 nM,"O=C(NCc1cc(Cl)cc(Cl)c1)[C@]1(F)CC[C@H](O)c2ncccc21 [Example 212, (5S,8S)-N-(3,5-dichlorobenzyl)-5-fluoro-8-hydroxy-5,6,7,8-tetrahydroquinoline-5-carboxamide]"
7,101 to 300 nM,"O=C(NCc1nc(-c2ccc(Cl)cc2)cs1)[C@]1(F)CC[C@H](O)c2ncccc21 [Example 213, (5S,8S)-N-((4-(4-chlorophenyl)thiazol-2-yl)methyl)-5-fluoro-8-hydroxy-5,6,7,8-tetrahydroquinoline-5-carboxamide]"
8,101 to 300 nM,"Cc1ccc(Cl)c(CNC(=O)[C@]2(F)CC[C@H](O)c3ncccc32)c1F [Example 216, (5S,8S)-N-(6-chloro-2-fluoro-3-methylbenzyl)-5-fluoro-8-hydroxy-5,6,7,8-tetrahydroquinoline-5-carboxamide]"
9,101 to 300 nM,"O=C(NCc1c(F)cccc1F)[C@]1(F)CC[C@H](O)c2ncccc21 [Example 217, (5S,8S)-N-(2,6-difluorobenzyl)-5-fluoro-8-hydroxy-5,6,7,8-tetrahydroquinoline-5-carboxamide]"
10,301 to 1000 nM,"O=C(NCc1ccccc1F)[C@]1(F)CC[C@H](O)c2ncccc21 [Example 223, (5S,8S)-5-fluoro-N-(2-fluorobenzyl)-8-hydroxy-5,6,7,8-tetrahydroquinoline-5-carboxamide]"
11,301 to 1000 nM,"COc1cccc(CNC(=O)[C@]2(F)CC[C@H](O)c3ncccc32)c1Cl [Example 224, (5S,8S)-N-(2-chloro-3-methoxybenzyl)-5-fluoro-8-hydroxy-5,6,7,8-tetrahydroquinoline-5-carboxamide]"
